Test results published in PubChem BioAssay AID602167 (The Scripps Research Institute Molecular Screening Center, 2012).
The source made the active and inactive calls. No rule for the calls is given here.

target: transactivating tegument protein VP16 (Human herpesvirus 1), as a GAL4-VP16 activation-domain luciferase reporter; test: GAL4-VP16 reporter repression curves – cell-based, luminescence, high throughput, SRC3 series, counter-screen for SRC3 inhibitor project, dose response (AID 602167); conditions: VP16 transactivation luciferase reporter cells

Compound	IC50
CN1C(=O)C2(C(C#N)=C(N)N(c3cc(Cl)cc(Cl)c3)C3=C2C(=O)CC(C)(C)C3)c2ccccc21 (stereo not drawn)	inactive
Cc1ccc(N=c2c([N+](=O)[O-])nn(-c3ccc4c(c3)OCCO4)n2O)cc1F	inactive
O=c1[nH]c2ccccc2n1C1CCN(C(c2cccc3ccccc23)c2nnnn2-c2ccc3c(c2)OCCO3)CC1 (stereo not drawn)	7.28 µM
Cc1ccc2occ(/C=N/NC(=O)[C@@H](N)Cc3ccccc3)c(=O)c2c1	9.66 µM
O=C(NCc1ccccc1)c1c(Cl)nc(Cl)c(Cl)c1Cl	inactive
C(=Cc1cnc2ccccc2n1)c1ccc2c(c1)OCO2	inactive
Cc1ccc(N=Nc2ccc3ccccc3c2O)cc1	inactive
Cc1cc(/C=C2\Cc3ccccc3C2=O)c(C)n1-c1ccccc1	inactive
COc1cc(C(=O)OCC(=O)Nc2sccc2C(N)=O)cc(OC)c1OC	> 35.9 µM (inactive)
CC(=O)Nc1ccc(SCC(=O)c2cc(C)n(-c3ccccc3F)c2C)cc1	> 12 µM (inactive)
CCOc1ccc(/C=C2\SC(=S)N(CCC(=O)O)C2=O)cc1	> 35.9 µM (inactive)
COc1cccc(NC(=O)CSc2nnc(-c3cc(C)n(-c4ccccc4)c3C)o2)c1	2.4 µM
COc1cccc(CNc2ncnc3ccc(-c4c(C)noc4C)cc23)c1	> 35.9 µM (inactive)
C=CCOn1c(C)c(C(C)=O)c2c3nonc3ccc21	7.3 µM
Cc1c(CC(=O)NCCCC(=O)O)c(=O)oc2cc3c(cc12)CCC(C)(C)O3	inactive
Cc1nnc(SC(=O)N2c3ccccc3Sc3ccccc32)s1	7.54 µM
NC(=O)c1cc(Sc2ccccc2)nc2ccccc12	inactive
CCCC(=O)NC(c1ccc2c(c1)OCO2)c1cc(Cl)c2cccnc2c1O (stereo not drawn)	7.92 µM
CN(C)/C=C/C(=O)c1ccc2noc(-c3ccccc3)c2c1	inactive
C=CCOc1ccc(/C=C2\SC(=S)N(CCC(=O)O)C2=O)cc1	> 35.9 µM (inactive)
CCn1c2ccccc2c2cnc(N=CN(C)C)c(C#N)c21	inactive
Cc1cccc(Oc2sc(C(=O)c3ccccc3)c(N)c2C#N)c1	inactive

Compound	IC50
CN(C)S(=O)(=O)c1ccc(N2CCN(S(=O)(=O)c3ccc(F)cc3)CC2)c(Cl)c1	9.39 µM
c1csc(Cc2nn3c(-c4ccncc4)nnc3s2)c1	inactive
Cc1nc2c(-c3ccc(Cl)cc3)cnn2c(N)c1-c1ccc(F)cc1	1.2 µM
CCCS(=O)(=O)Nc1ccc(Nc2c3ccccc3nc3ccccc23)c(OC)c1	> 35.9 µM (inactive)
COc1cc2c(c(OC)c1OC)-c1ccc(SC)c(=O)cc1C(NC=O)CC2 (stereo not drawn)	inactive
Nc1nc(CCl)nc(Nc2cccc3ccccc23)n1	inactive
Cc1ccc(C2=NN(C(=O)CCl)C(c3cccs3)C2)o1 (stereo not drawn)	inactive
c1ccc(-c2noc(-c3ccc4ccccc4c3)n2)nc1	6.07 µM
Cc1ccc(/C=C2/SC(=S)N(CCCC(=O)Nc3ccc(O)cc3)C2=O)cc1	inactive
Cc1c(Cl)cccc1NC(=O)Nc1ccccc1C(N)=O	> 35.9 µM (inactive)
O=C(Nc1ccccc1Oc1ccccc1)c1cc([N+](=O)[O-])ccc1Cl	inactive
CN(C)c1ccc(CNC(=O)CCNS(=O)(=O)c2cc(Br)cnc2N)cc1	8.6 µM
CC(=O)OCCN1c2ccccc2Sc2cnccc21	6.3 µM
CCc1nc(N)nc(N)c1-c1ccc(Cl)c([N+](=O)[O-])c1	> 35.8 µM (inactive)
COc1cccc(F)c1C(C[N+](=O)[O-])c1c(N)n(C)c(=O)n(C)c1=O (stereo not drawn)	5.01 µM
CN1CCN(c2ccc(NC(=O)N3CCc4ccccc43)cc2)CC1	inactive
C#CC(=O)N(c1cc(OC)ccc1OC)C(C(=O)NC1CCCC1)c1cccs1 (stereo not drawn)	> 35.9 µM (inactive)
CCc1ccc(/C=C2\SC(=S)N(CCCC(=O)NCCCN3CCOCC3)C2=O)cc1	inactive
CCN(c1cccc(C)c1)c1ncnc2nc[nH]c12	inactive
COC(=O)c1cc(S(=O)(=O)NCCc2ccc(Cl)cc2)c[nH]1	inactive
Cc1nc(N)nc(N)c1-c1ccc(Cl)c(Cl)c1	> 11.9 µM (inactive)
Fc1ccccc1-c1csc(=Nc2cccnc2)n1CCCn1ccnc1	7.45 µM

Compound	IC50
CN(Cc1cnc2nc(N)nc(N)c2n1)c1ccc(C(=O)NC(CCC(=O)O)C(=O)O)cc1 (stereo not drawn)	> 35.9 µM (inactive)
COc1ccccc1N(C(=O)CCl)c1cn(C(C)=O)c2ccccc12	8.58 µM
COc1cc2[nH]c3c(Cl)ncnc3c2cc1OC	inactive
CCCNC(=O)c1nnsc1S(=O)(=O)c1ccc(Cl)cc1	inactive
COc1cc(/C=N/NC(=Nc2ccc(C)cc2)c2nc3ccccc3s2)ccc1O	inactive
NC(=S)N/N=C1\CCSc2ccc(Cl)cc21	inactive
COCCNC(=O)c1cc(-c2ccccn2)nc2ccc(S(=O)(=O)N3CCC(C)CC3)cc12	> 35.9 µM (inactive)
COc1cc(NS(C)(=O)=O)ccc1Nc1c2ccccc2nc2ccccc12	> 35.9 µM (inactive)
CCOc1cc(/C=C2\CCC/C(=C\c3cc(Cl)c(O)c(OCC)c3)C2=O)cc(Cl)c1O	4.82 µM
CC(C)(C)c1cc(C(=O)N/N=C/c2ccc(O)cc2)n(-c2ccccc2)n1	inactive
COc1cc2c(cc1OC)C(C)N(C(=O)c1cccc([N+](=O)[O-])c1)CC2 (stereo not drawn)	8.56 µM
COc1ccc(CCNC(=O)c2nnn(-c3ccc4c(c3)OCCO4)c2N)cc1OC	inactive
COc1ccc(/C=C2/SC(=S)N(CCC(=O)O)C2=O)cc1	> 35.9 µM (inactive)
Cc1ccc(-n2c(C)cc(C(=O)COc3cccnc3[N+](=O)[O-])c2C)cc1	inactive
C[C@@H](C(=O)Nc1ccc2c(c1)OCCO2)n1c(=O)[nH]c2ccccc2c1=O	inactive
COc1cc2c(ccc3cc(OC)c(OC)c(O)c32)cc1O	inactive
COc1ccc2[nH]c(=O)c(CN(CCN3CCCC3)C(=O)Nc3ccccc3Cl)cc2c1	inactive
CCOC(=O)C(C(C)=O)c1c(Br)c(O)c(O)c2c(C(=O)c3ccc(C)cc3)coc12 (stereo not drawn)	4.28 µM
COc1ccc(OC)c(N/C=C/C(=O)c2ccccc2)c1	inactive
O=C(CCl)N1N=C(c2ccco2)CC1c1ccco1 (stereo not drawn)	> 12 µM (inactive)
COc1ccc(-n2cnc3c(sc4nccc(N(C)C)c43)c2=O)cc1	inactive
CCOc1ccc(/C=C2\SC(=S)N(CCCC(=O)NCCCN3CCOCC3)C2=O)cc1	inactive

Compound	IC50
COc1ccc(Nc2ccncc2[N+](=O)[O-])cc1	6.45 µM
Cc1nc([N+](=O)[O-])c(Sc2nc3ccccc3n2C)n1Cc1ccccc1	inactive
NC(=O)c1sc2nc3c(c(-c4ccco4)c2c1N)CCC3	3.1 µM
CN(Cc1cnc2nc(N)nc(N)c2n1)c1ccc(C(=O)NC(CCC(=O)O)C(=O)O)c2ccccc12 (stereo not drawn)	> 35.9 µM (inactive)
NC(=S)N/N=C1\CCOc2ccc(Cl)cc21	inactive
C=CCn1c(C)cc(C(=O)COc2ccc(C)nc2[N+](=O)[O-])c1C	inactive
Brc1ccc2ncc3ccccc3c2c1	inactive
CCn1nc(/C=C/c2ccccc2)nc2c(=O)n(C)c(=O)nc1-2	5.14 µM
NS(=O)(=O)c1ccc(Sc2nc3ccccc3s2)c([N+](=O)[O-])c1	7.26 µM
O=[N+]([O-])c1ccc(N(CCO)CCO)c2c1no[n+]2[O-]	5.59 µM
Nc1ccc(Oc2ccccc2-c2ccccc2)cc1	inactive
Nc1ccc(-c2cc3ccccc3oc2=O)cc1	> 35.9 µM (inactive)
Nc1nc2c(nnn2C2CC(O)C(CO)O2)c(=O)[nH]1 (stereo not drawn)	inactive
O=C(NC1CCCCC1)C(c1cccnc1)N(C(=O)CCl)c1cccc(Cl)c1 (stereo not drawn)	6.03 µM
O=C(OCCC12CC3CC(CC(C3)C1)C2)c1ccc(NCc2cc(O)ccc2O)cc1	5.45 µM
CC(=O)c1ccc(Nc2c3c(nc4ccccc24)CCCC3)cc1	inactive
COc1cccc(-c2nnc3sc(C4CCCCC4)nn23)c1	9.52 µM
Cc1cccc(NC(=O)c2cc(Cl)ccc2[N+](=O)[O-])c1	inactive
O=c1[nH]c2ccccc2n1C1CCN(C(c2ccccc2)c2nnnn2Cc2ccccc2)CC1 (stereo not drawn)	inactive
CN[C@H]1CCc2cc(OC)c(OC)c(OC)c2-c2ccc(OC)c(=O)cc21	> 35.9 µM (inactive)
CCOc1ccc(CC(=O)Nc2ccc(NC(=O)c3ccco3)cc2)cc1OCC	7.73 µM
O=c1[nH]c(O)c(N=Nc2ccc3c(c2)OCCO3)c(=O)[nH]1	inactive

Compound	IC50
COc1ccc(COC(=O)C2=C(C)NC(=O)NC2c2ccc(F)cc2)cc1 (stereo not drawn)	9.08 µM
O=C(N/N=C\c1ccc([N+](=O)[O-])s1)c1cncc(Br)c1	6.45 µM
CCC(=O)N1CCN(c2ccnc3cc(Cl)ccc23)CC1	inactive
COC(CN(C(=O)CCl)C(C(=O)NC1CCCCC1)c1ccccc1C)OC (stereo not drawn)	7.26 µM
O=[N+]([O-])c1cccc2c1ccc1ncccc12	inactive
O=C(Nc1nc2cc3c(cc2s1)OCCO3)C1=COCCO1	7.78 µM
Cc1cc(C(=O)CN2C(=O)c3ccccc3S2(=O)=O)c(C)n1C(C)C	inactive
CCn1ccnc1CN(C)Cc1cn[nH]c1-c1ccc(OC)c(F)c1	7.96 µM
Cc1c(/C(O)=C2/C(=O)C(=O)N(Cc3cccnc3)C2c2ccccn2)cnn1-c1ccccc1 (stereo not drawn)	> 35.9 µM (inactive)
COc1cc(/C=N/NC(N)=S)cc(Br)c1OCc1ccccc1F	> 12 µM (inactive)
CCCCC(=O)NC(c1ccc(Cl)cc1Cl)c1ccc2cccnc2c1O (stereo not drawn)	4.78 µM
COC(=O)c1cccc2c1-c1ccccc1/C2=N/O	5.73 µM
S=C(Nc1ccccc1)Nc1ccc(OCc2ccc(Cl)cc2Cl)cc1	7.96 µM
O=C(Nc1nc2ccccc2s1)C1c2ccccc2Oc2ccccc21	inactive
c1ccc2c(c1)Nc1ccncc1S2	inactive
O=c1[nH]cnc2c1nnn2C1OC(CO)C(O)C1O (stereo not drawn)	inactive
O=C(CCl)Nc1cccc(-c2cnc3ccccc3n2)c1	inactive
Cc1ccc(N(CCC#N)C(=O)CCl)cc1C	> 12 µM (inactive)
CC(=O)/C(N=Nc1ccc2c(c1)OCCO2)=C(\C)O	> 12 µM (inactive)
Nc1nccc(-c2ccc(-n3cnc4ccccc43)cc2)n1	7.5 µM
